# Experimental data taken from patent US10952436B2, “Microbiocidal quinoline (thio)carboxamide derivatives” (SYNGENTA PARTICIPATIONS AG, priority 2017, dated 2021).
# Columns and labels:
# [1] = tested on: Glomerella lagenarium (Colletotrichum lagenarium); assay: Glomerella lagenarium (Colletotrichum lagenarium)/Liquid Culture (Anthracnose); type: cell-based; settings: Colletotrichum orbiculare; 200 ppm; liquid culture, compared to untreated control, 3-4 days after application; read-out: control of Glomerella lagenarium
# Fusarium culmorum [2] = assay: microbe, parasite or virus in culture; type: cell-based; settings: read-out: control of Fusarium culmorum
# [3] = tested on: Botryotinia fuckeliana (Botrytis cinerea); assay: Botryotinia fuckeliana (Botrytis cinerea)/Liquid Culture (Gray Mould); type: cell-based; settings: 200 ppm, liquid culture, compared to untreated control, 3-4 days after application, read-out: control of Botryotinia fuckeliana
# Fusarium culmorum [4] = assay: whole plant or invertebrate; type: in vivo; settings: in Triticum aestivum, read-out: control of Fusarium culmorum
# [5] = tested on: Magnaporthe grisea (Pyricularia oryzae); assay: microbe, parasite or virus in culture; type: cell-based; settings: read-out: control of Magnaporthe grisea
# [6] = tested on: Monographella nivalis (Microdochium nivale); assay: Monographella nivalis (Microdochium nivale)/Liquid Culture (Foot Rot Cereals); type: cell-based; settings: 200 ppm, liquid culture, compared to untreated control, 4-5 days after application, read-out: control of Monographella nivalis
SMILES,inhibition of growth at 200 ppm [1] [%],inhibition of growth at 200 ppm (Fusarium culmorum [2]) [%],inhibition of growth at 200 ppm [3] [%],pest or weed control at 200 ppm (Fusarium culmorum [4]) [%],inhibition of growth at 200 ppm [5] [%],melting point [°C],inhibition of growth at 200 ppm [6] [%]
"COC(Cc1ccccc1)(CC(C)C)C(=O)Nc1cnc2c(F)cccc2c1 (stereo not shown) [Compound E-38, 2-benzyl-N-(8-fluoro-3-quinolyl)-2-methoxy-4-methyl-pentanamide]",≥ 80,≥ 80,≥ 80,≥ 80,≥ 80,133 to 135,–
"COC(Cc1ccccc1)(CC(C)C)C(=O)Nc1cc2cccc(F)c2nc1C (stereo not shown) [Compound E-37, 2-benzyl-N-(8-fluoro-2-methyl-3-quinolyl)-2-methoxy-4-methyl-pentanamide]",≥ 80,≥ 80,≥ 80,≥ 80,≥ 80,92 to 94,≥ 80
"C=C(C)CC(C)(Cc1ccccc1)C(=O)Nc1cnc2c(Br)cccc2c1 (stereo not shown) [Compound E-63, 2-benzyl-N-(8-bromo-3-quinolyl)-2,4-dimethyl-pent-4-enamide]",–,≥ 80,≥ 80,≥ 80,≥ 80,165 to 169,–
"O=C(Nc1cnc2c(F)cccc2c1)C(Cc1ccccc1)CC(F)(F)Cl (stereo not shown) [Compound E-58, 2-benzyl-4-chloro-4,4-difluoro-N-(8-fluoro-3-quinolyl)butanamide]",≥ 80,≥ 80,≥ 80,≥ 80,≥ 80,65 to 70,≥ 80
"CC(Cc1ccccc1)(CC(F)(F)F)C(=O)Nc1cnc2c(F)c(F)ccc2c1 (stereo not shown) [Compound E-60, 2-benzyl-N-(7,8-difluoro-3-quinolyl)-4,4,4-trifluoro-2-methyl-butanamide]",≥ 80,≥ 80,≥ 80,≥ 80,≥ 80,183 to 186,≥ 80
"C=CCC(C)(Cc1ccccc1)C(=O)Nc1cnc2c(F)cccc2c1 (stereo not shown) [Compound E-78, 2-benzyl-N-(8-fluoro-3-quinolyl)-2-methyl-pent-4-enamide]",≥ 80,≥ 80,≥ 80,≥ 80,–,146 to 149,≥ 80
"CC(C)(C)C(Cc1ccccc1)C(=O)Nc1cnc2c(F)cccc2c1 (stereo not shown) [Compound E-88, 2-benzyl-N-(8-fluoro-3-quinolyl)-3,3-dimethyl-butanamide]",–,≥ 80,≥ 80,≥ 80,≥ 80,212 to 215,–
"CC(C)=CC(C)(Cc1ccccc1)C(=O)Nc1cnc2c(F)cccc2c1 (stereo not shown) [Compound E-48, 2-benzyl-N-(8-fluoro-3-quinolyl)-2,4-dimethyl-pent-3-enamide]",≥ 80,≥ 80,≥ 80,≥ 80,≥ 80,167 to 169,–
"C=C(Cl)CC(Cc1ccccc1)C(=O)Nc1cnc2c(F)cccc2c1C (stereo not shown) [Compound E-5, 2-benzyl-4-chloro-N-(8-fluoro-4-methyl-3-quinolyl)pent-4-enamide]",≥ 80,≥ 80,≥ 80,≥ 80,–,53 to 58,≥ 80
"Cc1c(NC(=O)C(C)(Cc2ccccc2)CC(C)C)cnc2c(F)cccc12 (stereo not shown) [Compound E-84, 2-benzyl-N-(8-fluoro-4-methyl-3-quinolyl)-2,4-dimethyl-pentanamide]",≥ 80,≥ 80,≥ 80,≥ 80,–,73 to 79,≥ 80
